“Also recorded” adds a separate entry of the source.

The nature of the data set: Qualitative solubility in water and organic solvents. It counts as physicochemical. Particulars: for solubility in methanol: compared to octadecadiynyl analogues 12 and 3; for solubility in organic solvents: organic solvents like CHCl3, CH2Cl2 (and DMF). An excerpt:
Thus self-aggregation behavior of 3 has not been investigated. To increase the polar character and to improve the water-solubility of such a bis-biotinated derivative, the [5:1]-hexakisadduct 13 with five ethyl malonate addends instead of the five octadecadiynyl malonates was synthesized (FIG. 2). To overcome the general problem of separating the desired hexakisadducts from other adducts formed simultaneously upon the exhaustive cyclopropanation step the sequence of addition steps was reversed in this case. For this purpose the cherry-red C2v-symmetrical [5:0]-pentakisadduct 14^[14] was prepared and used as starting material. The subsequent cyclopropanation reaction with the Boc-protected spacer malonate 8 to complete the C2v-symmetrical octahedral addition pattern afforded the bright-yellow N-Boc-protected [5:1]-hexakisadduct 15 in 63% yield after FC and HPLC purification. After cleavage of the Boc-protecting groups with TFA/CH2Cl2 the bis-amino amphifullerene 16 was obtained in quantitative yield. […]
The characterization of the protected dipeptide hexakisadduct precursors 45 and 46 as well as the free dipeptide hexakisadducts 47 and 48 succeeded by IR-, UV-, ^1H and ^13C NMR and by FAB mass spectroscopy.
The synthesis of a series of mixed amphiphilic hexakisadducts of C60 with an octahedral addition pattern is now described. The new [5:1]-hexakisadduct 3 involving five non-polar long chain malonate addends and one polar addend with two biotin termini is insoluble in water. As a consequence it cannot be used for the investigation of superstructures in aqueous solution. However, it represents an attractive building block for a potential co-surfactant aided assembly to mixed micelles or liposomes. The spacer carrying the biotin termini was designed in a way that it can protrude through a layer of assembled lipid molecules such as DPPC. This in principle makes it available for targeting of micelles and liposomes via avidin mediated binding of label molecules. This is believed to be the first report of the synthesis of amphiphilic [3:3]-hexakisadducts of C60. The key for the very facile access to these aesthetically pleasing molecules is the easy synthesis of the e,e,e-trisadduct 18, which can be prepared in one step from the highly regioselective addition of cyclo-[3]-octylmalonate 17. The remaining three octahedral sites are available for the attachment of three ionic or neutral polar addends. As termini carboxy, amino and peptide moieties were used. This allows for the introduction of a tunable number of positive or negative charges within the polar groups by pH-variation. In a few cases preliminary investigations on the self-assembly using cryo-TEM and PGSE-NMR have been carried out. It has been shown that the solubility and self-assembly properties depend on the number of ionic charges and therefore on the pH value. These are very favourable opportunities for the controlled encapsulation and release of non-polar guest molecules making such amphiphilic fullerenes interesting candidates for drug delivery systems. Extensive investigations on the aggregation and inclusion properties of amphiphilic [3:3]-hexakisadducts of C60 are currently under way.

For the substance “1,2-{Bis-(14-[3-{2-(2-[Aminopropoxy]-ethoxy)-ethoxy}-propyl]carbamoyl-tetradecyloxycarbonyl)-methano}-18,36:22,23:27,45:31,32:55,60-pentakis-{ethyloxycarbonyl)-methano}-1,2:18,36:22,23:27,45:31,32:55,60-dihydro[60]fullerene [compound 16]”, the solubility in methanol entry was “enhanced solubility” and the “solubility in organic solvents” value was “appreciable solubility”.
As to “1,2-{Bis-(14-[3-{2-(2-[N-Biotinyl-aminopropoxy]-ethoxy)-ethoxy}-propyl]-carbamoyltetradecyloxycarbonyl)-methano}-18,36:22,23:27,45:31,32:55,60-pentakis-{di(10,12-octadecadiynyloxycarbonyl)-methano}-1,2:18,36:22,23:27,45:31,32:55,60-dihydro[60]fullerene [compound 3]”, the “solubility in organic solvents” value is given as “Acceptable solubility”, the self-assembly in water result is given as “inappropriate to form self-assemblies in water” and the solubility in water result is reported as “only soluble in the presence of a co-solvent like methanol; also recorded: water-insoluble”.
As for “1,2-{Bis-(14-[3-{2-(2-[N-Biotinyl-aminopropoxy]ethoxy)-ethoxy}-propyl]-carbamoyl-tetradecyloxycarbonyl)-methano}-18,36:22,23:27,45:31,32:55,60-pentakis-{ethyloxycarbonyl)-methano}1,2:18,36:22,23:27,45:31,32:55,60-dihydro-[60]fullerene [compound 13]”, the solubility in methanol entry is given as “enhanced solubility”, the “solubility in organic solvents” value is “appreciable solubility”, the self-assembly in water entry was “inappropriate to form self-assemblies in water” and the solubility in water result is given as “water-insoluble”.

Values taken from patent US7507764B2 (Tego BioSciences Corporation, priority 2003, dated 2009).
